Reference: patent US4221794A, “Method of imparting immunomodulating and antiviral activity” (Newport Pharmaceuticals International, Inc., priority 1979, dated 1980)
Entries after “also recorded” stand apart in the source; their conditions may differ.

Key:
Herpes virus = test: Anti-herpes activity, plaque assay (Table 3); type: cell-based, herpes hominis type 2 (Vero cells); details: for Plaques (PFU) Percent Inhibition: Test 15-150 μg/ml; for reduce plaque formation caused by Herpes Simplex virus: concentrations less than 100 μg/ml
Description: Anti-Herpes Activity--(Plaque Assay)
The infection of tissue culture cells by Herpes virus causes cell lysis. After a period of time these lysed cells are visualized as a tiny clear area (plaque) on a layer of cells. The incorporation of a test substance into the media will reduce the number of plaques if it is capable of preventing virus replication. The method is as follows:
There was employed herpes hominis type 2 purchased from American Type Culture Collection (ATCC), Bethesda, Maryland, ATCC #VR 540, Lot 3D. The lyophilized viral suspension was reconstituted with 1 ml sterile distilled H2 O. The virus was passed twice through HeLa-cell monolayers. The tissue-culture supernates were pooled, dispensed in 1-ml aliquots, and stored at -70° C.
Vero cells in log-growth phase were subcultured at a concentration of 1×10^5 cells/ml in 50-ml Falcon flasks in Eagle's Minimum Essential Medium (MEM), supplemented with 10% fetal calf serum (FCS) and antibiotics. Media were changed the day following planting. The Vero monolayers reached confluence by the second day after planting and with the cells in log phase, the cultures were used for the plaque assay.
Culture media were poured off and the monolayers were wahsed once with phosphate-buffered saline (PBS). Several different dilutions of the working-stock virus suspension were prepared and each culture flask was infected with 0.5 ml of one of the virus dilutions added to FCS-free medium. […] Controls were prepared with medium devoid of drug.
Virus adsorption was allowed to proceed for 2 hours at 37° C., during which time the cultures were rocked gently every 15 minutes. Then Media were poured off and the monolayers were washed once with 10 ml PBS.
Agarose was prepared at a concentration of 6% w/v in 50 ml PBS. A stock medium of MEM supplemented with 2% FCS was prepared. Drug was added to some of the stock medium at 150 μg/ml. The three solutions were maintained at 47° C. In addition, a 1:10 dilution of pooled human anti-herpes sera was readied. Just before the start of treatment, 15 ml of the agarose solution were added to 85 ml of medium. Another 15 ml of agarose were added to 85 ml of drug-medium.
Each of the washed monolayers in one group of experiments was treated either with 5 ml of agarose-medium or with 5 ml of agarose-drug-medium. In another group of experiments, each monolayer was treated either with 0.2 ml of anti-herpes sera in 5 ml of stock medium, or with 0.2 ml of anti-herpes sera in 5 ml of drug-medium. The anti-herpes sera were used in place of agarose to localize plaques by neutralizing any free virus in the medium. The flasks were allowed to remain at room temperature for 5 minutes, after which they were incubated at 37° C. for 2 days. Triplicate cultures were used for most treatment groups.
Ten ml of PBS then were added to each flask. Overlays were shaken gently and then were poured out of the flasks. The monolayers were stained with a solution 0.5% w/v crystal violet in 50% methanol in triple-distilled H2 O.
Plaques were counted either directly by transmitted fluorescent light and macroviewing, or by the use of light microscopy for microplaques. Microplaques were counted by averaging three fields per experimental group under 150×magnification.

Toxicity in mice = details: for LD50: mouse, in vivo
guinea pig macrophages = test: Lymphokine (MMF) induced guinea pig macrophage proliferation; type: cell-based; details: plus = immunostimulating, minus = immunoinhibiting, 0 = neither
Experimental: 3. The macrophage represents a subpopulation of white blood cells which is an important component of the immune system in control of both cellular and humoral immunity. The assay system described below evaluates the substances studied as potentiators of macrophage function.
Phytohemagglutinin (PHA) (HA-17) was purchased from Burroughs Wellcome. A preparation containing Macrophage Mitogen Factor (MMF) and Macrophage Activating Factor (MAF) was prepared from antigen-stimulated immune lymph node lymphocytes (guinea pig) as previously described by Hadden et al, Nature 257, 483-485 (1975). […] The active fraction was employed in both the proliferation and activation assays.
Ficoll-hypaque purified human peripheral blood lymphocytes were prepared and PHA-induced lymphocyte proliferation was assayed by the incorporation of tritiated thymidine as described in Hadden et al., Cell. Immunol. 20, 98-103 (1975). Each compound was analyzed in the presence of suboptimal, optimal and supraoptimal concentrations of PHA (0.001, 0.01, 0.1 units/ml respectively). Paraffin oil-induced guinea pig peritoneal macrophages were prepared and incubated as monolayer culture (>98% pure macrophages). Lymphokine (MMF)-induced proliferation was assayed by the incorporation of tritiated thymidine at 3 and 5 days of culture as described, Hadden et al, Nature 257, 483-485 (1975). Lymphokine (MAF)-induced macrophage activation to kill Listeria monocytogenes following 5 days of culture in the presence or absence of MAF was performed during a 6 hour period as described in Hadden and England, Immunopharmacology, pages 87-100 (Plenum Press, 1977). Phagocytosis was quantitated during a 20-minute exposure to Listeria monocytogenes by counting the number of macrophages containing bacteria and the number of bacteria per phagocytic cell on gram stained monolayers in Labtek chambers. Intracellular killing of bacteria was evaluated by counting the number of cells containing bacteria and the number of bacteria/cell 6 hours after the initial 20 minute exposure. Parallel experiments in which macrophages were lysed and intracellular bacteria were cultured confirm the validity of bacterial activity determined by this manner in this system. The drugs were employed in each of the three systems over serial log concentration range in triplicate in the presence and absence of mitogen or lymphokine. Each type of experiment was performed at least three times. Previous experiments indicate a parallelism of response to pharmacologic modulation in the proliferation and achivation assays.
Table 4 above presents the results of an evaluation of a number of these subject compounds as potentiators of the immune response. Three different test systems were used. The first involves a measure of the ability of the test compound to enhance the ability of mouse lymphocytes to proliferate in response to a plant mitogen (Con A). The second involves measuring the ability of the test compounds to enhance human lymphocyte proliferation in response to a second plant mitogen (PHA). The third system measures the ability of these test substances to enhance macrophage proliferation in response to a natural lymphokine (MMF, Macrophage Mitogenic Factor).

influenza virus = test: Anti-influenza activity (overall); type: cell-based, several strains of A and B sub-types; details: for inhibit the replication of different strains of influenza virus (number of strains): concentrations ranging from 1-150 μg/ml

Compound	inhibition of replication of Herpes Simplex virus (in words) (Herpes virus)	Plaques (PFU) Percent Inhibition (Herpes virus) [%]	reduce plaque formation caused by Herpes Simplex virus (Herpes virus) [%]	drug related mortality (Toxicity in mice; mice, doses of 1000 mg/kg)	Maximum Percent Change, Lymphokine Induced (MMF) Guinea Pig Mac. Prolif. (guinea pig macrophages; 1.0-10 (unit not given)) [%]	Maximum Percent Change, Lymphokine Induced (MMF) Guinea Pig Mac. Prolif. (guinea pig macrophages; .01-1.0 (unit not given)) [%]	anti-influenza activity (in words) (influenza virus; compound by itself)	inhibit the replication of different strains of influenza virus (number of strains) (influenza virus)	LD50 (Toxicity in mice) [mg/kg]	LD50 (Toxicity in mice; sc) [mg/kg]	potentiation of anti-influenza activity by DIP.PAcBA salt (influenza virus)
CCCCCC[C@H]([C@H](C)O)n1cnc2c(=O)[nH]cnc21 (relative stereo) [NPT 15392, ERYTHRO-9-(2-HYDROXY-3-NONYL)HYPOXANTHINE]	shown to inhibit the replication of Herpes Simplex virus	98	> 90	no drug related mortality was noted	23	33	significant anti-influenza activity	at least 4 different strains	–	–	–
CCCCCC[C@H]([C@H](C)O)n1cnc2c(=O)[nH]cnc21 (relative stereo) [NPT 15410]	shown to inhibit the replication of Herpes Simplex virus	98	> 90	–	23	12	–	at least 4 different strains	4300	4900	does not potentiate the anti-influenza activity; also recorded: equally active
